This is an account of results in patent US11718593B2, “2,5-aryl-thiazole analogs for the treatment of neurodegenerative diseases” (Southern Research Institute, priority 2018, dated 2023).

One data set deals with NF-κB. The experiment in a line: High throughput assay for NF-κB reporter activity (luciferase, stably transfected SH-SY5Y cells). Format: cell-based, human. The conditions noted are these: for maximal fold induction: 24 h, read-out: Emax. As to the method: SH-SY5Y human neuroblastoma cell line was obtained from the American Tissue Culture collection (ATCC). A commercially available expression vector containing the NF-kB promoter enhancer region driving the firefly luciferase gene expression and a second plasmid containing the gene conferring resistance to blasticidin were used in a dual transfection approach to obtain a stable cell line. SH-SY5Y cells stably transfected with pNF-κB-luc/pEF6 were plated at 8,000 per well in a volume of 40 μl DMEM in either Corning white opaque, 384-well plates (Cat. No. 3570, Corning, Inc., Corning, N.Y.) or Corning black clear bottom, 384-well plates (Cat. No. 3712, Corning, Inc., Corning, N.Y.) and treated with test compounds for 24 hr at 37° C. Luciferase activity was measured as a reporter of NF-kB activation using the Bright-Glo Luciferase assay kit (Cat. No. E2620, Promega, Madison, Wis.) according to the manufacturer's instructions. Cell viability was measured using the CellTiter-Glo Luminescent Cell Viability assay kit (Cat. No. G7572, Promega, Madison, Wis.) according to the manufacturer's instructions. Briefly, cells were equilibrated at room temperature for 30 min prior to the addition of Bright-Glo to the white opaque plates or CellTiter-Glo to the black clear bottom plates. A volume of assay buffer equal to the volume of cell media was added to each well and incubated for five min to allow complete cell lysis. All procedures were performed in the dark. Luminescence was measured by the Synergy4 Multi-detection microplate reader (BioTek, Winooski, Vt.) within 15 min of lysis.

Data set [1] concerns SOD2. The experiment in a line: SOD2 mRNA expression by quantitative RT-PCR in SH-SY5Y neuroblastoma cells. The conditions noted are these: human SH-SY5Y, 1 μM, 6 h (FIG. 1A). Type of data set: cell-based.
For data set [2], the system named is SOD2. As to the kind of experiment: SOD2 mRNA expression by quantitative RT-PCR in NSC-34 neuroblastoma cells. Type of data set: cell-based. The conditions noted are these: mouse NSC-34, 1 μM, 24 h (FIG. 1B).
Data set [3] has as its system SOD2. As to the kind of experiment: SOD2 protein expression and SOD activity in primary rat cortical cultures. Type of data set: cell-based. The conditions noted are these: for SOD2 protein expression: primary rat cortical cultures (FIG. 1C); for SOD activity: primary rat cortical cultures (FIG. 1D). The source says: N=3-6/group, mean+/−SEM, *p<0.05, **p<0.01, 2-way ANOVA, post-hoc t-test.

Data set [4] relates to SOD2. The experiment in a line: SOD2 mRNA expression in vitro (FIG. 5). Type of data set: cell-based. To be noted: FIG. 1A-D. The source says: While a number of new compounds derived from Ataluren and compound no. […] 1 and no. 2. […] Whether these and other compounds are capable of inducing SOD2 mRNA and protein activity in vitro and in vivo, in addition to their ability to protect neurons from hydrogen peroxide or glutamate-induced cell death (as in Carri et al. (2015) Frontiers in cellular neuroscience 9:41) and dysfunction/cell death in the SOD1 G93A transgenic mouse model will also be evaluated.

The subject of a further data set is inhibitory κB. As to the kind of experiment: Inhibitory κB expression levels. Format: cell-based.
Data set [5] has as its system glutamate-induced toxicity in primary cultures. The experiment in a line: Neuroprotection in vitro. Type of data set: cell-based.
In data set [6] the test system is SOD1 G93A transgenic mouse. The experiment in a line: Efficacy in the SOD1 G93A transgenic mouse model of ALS. Type of data set: in vivo. The conditions noted are these: for progression to a score of 4: 25 mg/kg I.P. daily from day 96, 4-point severity score; for survival: SOD1 G93A males, 25 mg/kg I.P. daily from day 96. As to the method: Briefly, Congenic SOD1-G93A mice were dosed with up to 50 mg/kg of both compounds (IP) to evaluate any toxicity issues prior to initiating the efficacy study. Also, mice administered 20 mg of each compound had high plasma and brain levels at 30 minutes. Next, individually genotyped SOD1-G93A mice (Prize4life-Jackson Labs) were treated with each compound (25 mg/kg, IP) at disease onset (day 96). The treatment extended survival, reduced weight loss and improved the neurologic symptoms. […] Data document a 66% and an 81% lifespan extension for the compounds, respectively, at 50% survival in male mice. […] The average weight within the groups before the treatment was similar.
While compounds which increase SOD2 expression and activity have potential utility in a number of neurodegenerative diseases involving ROS overproduction, it was decided to test these two compounds in a mouse model of ALS for a variety of reasons, including the evidence for oxidative stress in ALS (described above), the ability of these compounds to induce SOD2 in a motor neuron-like mouse cell line (NSC-34; FIG. 1B), and the availability of a mouse model with dysfunction in SOD1 (human SOD1 G93A transgenic mouse; Jackson Laboratory). The pilot experiment involved treating six wildtype and six SOD1 G93A transgenic males on the C57BL/6 background with 25 mg/kg compound no. 1 and compound no. 2 I.P. daily, beginning around disease onset (day 96; FIG. 2A and FIG. 2B). Mouse survival and behavioral phenotype were observed based on guidelines from “Working with ALS mice: JAX handbook,” using a 4-point severity score (FIG. 2C).
Referring to FIG. 2A and FIG. 2B, SOD1 G93A mice received daily IP injections of saline (control) or compounds (25 mg/kg) starting on day 96.

Data set [7] in a line: Plasma and brain levels in SOD1 G93A mice. To be noted: 50 mg/kg I.P., within 30 minutes. Type of data set: in vivo, mouse. As to the method: Before the studies above were initiated, congenic SOD1 G93A mice were dosed with 50 mg/kg of compound no. 1 and compound no. 2 via I.P. injection to rule out any toxicity issues prior to initiating the efficacy study (FIG. 2A-C).
The nature of data set [8]: Bioavailability / PK study (IV and PO). Format: in vivo, mouse. The conditions noted are these: for oral bioavailability: I.V./P.O., 1 and 5 mg/kg; for half-life: male, CD1, mouse, plasma, read-out: plasma half-life (t1/2). The procedure: The experiments will involve the administration of compounds to 5-6 week old CD1 male mice. Mice are dosed by either a 1 mg/kg IV bolus or 5 mg/kg oral gavage. Blood samples are collected by cardiac puncture at 0, 0.25, 0.5, 1, 2, 4, 6, 8, 12, and 24 hrs. There will be three mice per time point. Plasma concentration over time will be determined by LC/MS from which the standard PK parameters of clearance, volume of distribution, t1/2 and % F can be derived using WinNoLin software (Pharsight Inc.). This will require a total of 60 mice per compound. Plasma will be analyzed by reverse phase chromatography with MS/MS detection operating in the positive ion mode using multiple reaction monitoring using an internal standard and Applied Biosystems Analyst 1.4 software. Peak time (when maximum plasma drug concentration occurs), peak drug level [approximate maximum concentrations of drug in plasma (Cmax)] and tin for drug elimination will be estimated for each tested compound. Bioavailability (F) will be calculated from the ratio of AUCPO/AUCIV and expressed as a percentage. To determine levels in brain, six additional mice will be dosed with 1 mg/kg I.V. and sacrificed at 0.25 and 1 hr. Brain and spinal cord samples will be collected at these two time points, quick frozen in an ice box and kept at −75±15° C. All samples will be weighed and homogenized with phosphate buffered saline (PBS) by brain weight (g) to PBS volume (mL) ratio 1:3 before analysis. The actual concentration is the detected value multiplied by the dilution factor.

Where [9] appears, read: Homo sapiens, SH-SY5Y, Table 2, no unit printed (text: fold).
Where [10] appears, read: Homo sapiens, SH-SY5Y, Table 2, unit not given (μM for nos. 3 and 20), read-out: EC50.
The mark [11] stands for this setting: Table 2, unit not given (μM for nos. 3 and 20).

Where two headings read alike, the source gives them in different places.

One may read the EC50 as the concentration at which the effect is half-maximal. Consider `O=C(O)c1cccc(-c2noc(-c3ccccc3F)n2)c1` [Ataluren, reference compound], for which, in the data set with NF-κB, the induction is reported as 9-10 fold. Moreover, the EC50 with NF-κB (Homo sapiens, SH-SY5Y, read-out: EC50) came out at 1.5 µM.

On to `O=C(/C=C\Nc1ccccc1Br)c1ccc2c(c1)OCO2` [Compound 1, (Z)-1-(Benzo[d][1,3]dioxol-5-yl)-3-((2-bromophenyl)amino)Prop-2-en-1-one], for which, in the data set with NF-κB (setting [9]), the maximal fold induction amounted to 26. For the same compound, the EC50 in the data set on NF-κB (setting [10]) worked out at 0.5 µM. In addition, the “SOD2 mRNA expression” value with SOD2 [1] is on record as “induce SOD2”. Further, in the data set with SOD2 [2], the “SOD2 mRNA expression” value is listed as “induce SOD2”. In the data set with SOD2 [3], the SOD2 protein expression entry was “induce SOD2” and the SOD activity entry is listed as “increase”. Also, in the data set on SOD2 [4], the “SOD2 mRNA expression increase” value is on record as 2 fold. Moreover, the “inhibitory κB expression levels” value in the data set with inhibitory κB is “do not effect inhibitory κB expression levels”. In addition, the neuroprotection in vitro entry in [5] was “neuroprotective in vitro”. In [6], the “progression to a score of 4” value is given as “delayed” and the survival result is on record as “significantly prolonged”. Moreover, in data set [7], the “plasma and brain levels” value is “substantial plasma and brain levels”. Besides, in data set [8], the oral bioavailability entry is recorded as “lack of oral bioavailability” and the half-life is under 5 min.

As for `Cc1cccnc1Nc1nc(-c2ccccn2)cs1` [Compound 2, N-(3-Methylpyridin-2-yl)-4-(pyridin-2-yl)thiazol-2-amine], the maximal fold induction with NF-κB (setting [9]) came to 40. In addition, in the data set on NF-κB (setting [10]), the EC50 turned out to be 0.21 µM. Further, the “SOD2 mRNA expression” value in the data set with SOD2 [1] was “induce SOD2”. Further, in the data set with SOD2 [2], the “SOD2 mRNA expression” value is “induce SOD2”. Also, in the data set on SOD2 [3], the SOD2 protein expression result is given as “induce SOD2” and the SOD activity entry was “increase”. Further, in the data set with SOD2 [4], the “SOD2 mRNA expression increase” value is 2 fold. Besides, the “inhibitory κB expression levels” value in the data set on inhibitory κB was “do not effect inhibitory κB expression levels”. In addition, the neuroprotection in vitro entry in data set [5] is recorded as “neuroprotective in vitro”. Moreover, in [6], the “progression to a score of 4” value is recorded as “delayed” and the survival entry is reported as “significantly prolonged”. In data set [7], the “plasma and brain levels” value was “substantial plasma and brain levels”. In data set [8], the oral bioavailability result is reported as “lack of oral bioavailability” and the half-life is under 5 min.

With `Fc1ccccc1Nc1nc(-c2cccc(C(F)(F)F)c2)cs1` [Compound 16], in the data set with NF-κB (setting [9]), the maximal fold induction was 16. In addition, the concentration giving a half-maximal response (EC50) in the data set on NF-κB (setting [10]) is 9.35 µM.

For the compound `Fc1ccccc1Nc1nc(-c2cccc(Cl)c2)cs1` [Compound 17], the maximal fold induction in the data set on NF-κB (setting [9]) came out at 14.5. Also, in the data set on NF-κB (setting [10]), the EC50 is over 10 µM.

Take `Fc1ccc(-c2csc(Nc3ccccc3F)n2)cc1F` [Compound 19]: in the data set on NF-κB (setting [9]), the maximal fold induction came to 18.5. In addition, the EC50 with NF-κB (setting [10]) is over 10 µM.

In the case of `CC(C)(O)c1cccc(-c2csc(Nc3ccccc3F)n2)c1` [Compound 21], the maximal fold induction in the data set with NF-κB (setting [9]) stood at 18.9. The EC50 with NF-κB (setting [10]) was over 10 µM.

Turning to `Fc1ccccc1Nc1nc(-c2ccc(OCC(F)(F)F)cc2)cs1` [Compound 24], in the data set on NF-κB (setting [10]), the EC50 was over 10 µM.

Take `N#Cc1cccc(-c2csc(Nc3ccccc3F)n2)c1` [Compound 25]: the EC50 in the data set with NF-κB (setting [10]) is over 10 µM.

Regarding `Fc1ccccc1Nc1nc(-c2ccc(C(F)(F)F)cc2)cs1` [Compound 26], the EC50 in the data set on NF-κB (setting [10]) was over 10 µM.

In the case of `N#Cc1ccc(-c2csc(Nc3ccccc3F)n2)cc1` [Compound 27], the EC50 in the data set with NF-κB (setting [10]) was over 10 µM.

For the compound `O=C(NC1CC1)c1cccc(-c2csc(Nc3ccccc3F)n2)c1` [Compound 28], in the data set on NF-κB (setting [11]), the EC50 result is listed as “Inactive”.

Consider `Fc1ccccc1Nc1nc(-c2ccc(Cl)c(Cl)c2)cs1` [Compound 29], for which the EC50 with NF-κB (setting [10]) was over 10 µM.

With `NC(=O)c1cccc(-c2csc(Nc3ccccc3F)n2)c1` [Compound 30], the EC50 result with NF-κB (setting [11]) is reported as “Inactive”.

Regarding `Cc1noc(-c2cccc(-c3csc(Nc4ccccc4F)n3)c2)n1` [Compound 31], the EC50 result in the data set with NF-κB (setting [11]) is listed as “Inactive”.

`Fc1ccc(-c2csc(Nc3ccccc3F)n2)cc1` [Compound 43]: in the data set with NF-κB (setting [11]), the half-maximal effective concentration (EC50) entry was “Inactive”.

Turning to “N-(4-(2-((2-Fluorophenyl)amino)thiazol-4-yl)benzyl)acetamide [Compound 20]”, the Emax is recorded as over 20 fold with NF-κB and 27.58 in the data set with NF-κB (Table 2, no unit printed (text: fold)). Besides, the EC50 is 3.75 µM in the data set on NF-κB (Table 2, unit not given (μM for nos. 3 and 20), read-out: EC50); 4 µM in the data set with NF-κB (read-out: EC50).
